Earlier results as cited in patent US20210213093A1, “COMPOSITIONS AND METHODS FOR ACTIVATING CELLULAR SIGNALING PATHWAYS” (LifeVantage Corporation, priority 2020, published 2021).

Conditions: background statement, no test described

O=C(O)CCCC[C@@H]1CCSS1 (racemic) [Lipoic acid, lipoic acid]
antioxidant power relative to vitamin E and vitamin C combined: 400 times
